Measurements as given in patent US20120251495A1, “PTERIN BASED THERAPIES FOR INFLAMMATORY CONDITIONS” (priority 2008, published 2012).
pIC50: −log10 of the molar value.

Tests used:
IDO = biological target: T1, IDO (Homo sapiens, UniProt P14902); assay: IDO inhibition in vitro with human PBMCs (kynurenine production); type: cell-based
T1 construct: endogenous in cells; host or cells: human PBMCs (peripheral blood mononuclear cells), unstimulated or PHA-stimulated
Description: The purpose of this in vitro study was to measure the IC50 values of IDO in PBMCs for 1) calcium pterin, CaCl2, and pterin to determine measurable synergistic effects between Ca^+2 and pterin, and 2) to compare these values with those of DCP for the assessment of relative IDO inhibitory strength. IC50 (μM) values for IDO inhibition by (1:4 mol:mol) calcium pterin, DCP, CaCl2, and pterin were determined in vitro with human PBMCs (both PHA-stimulated and unstimulated) by measuring kynurenine production as previously described (Winkler et al., 2006).

HBe antigen = assay: Sera HBeAg ELISA in HBV transgenic mice; type: in vivo; conditions: males
Description: (§1) Experimental design. DCP was administered per os, once daily for 14 days to randomly assigned HBV transgenic mice at 23, 7.3, and 2.3 mg/(kg d). ADV was used as a positive control at 10 mg/(kg d) using the same treatment schedule and vehicle (0.4% CMC). On day 14, mice were euthanized to collect serum and liver samples to perform liver HBV DNA, liver core and serum HBe assays, serum cytokine/chemokine profiles, and IDO metabolite assays.
Sera HBeAg. Whole blood samples were obtained during necropsy by cardiac puncture, and processed for an HBeAg-specific ELISA (International Immuno Diagnostics, Foster City Calif.) (Money J D, Motter N E, Taro B, Lay M & Fairman J. Efficacy of cationic lipid-DNA complexes (CLDC) on hepatitis B virus in transgenic mice. Antiviral Res 2008; 79:71-79). Using the known PEI (Paul Ehrlich Institute) units for the calibrator, PEI units were formulated for the serial dilutions of the positive serum. A graph was generated, and extrapolation was used to assign a PEI unit value for each sample.

[1] = tested on: serum cytokines/chemokines; assay: Serum cytokine/chemokine array in HBV transgenic mice; type: in vivo
Description: as §1
Liver or serum cytokine/chemokine array. Liver samples were prepared for the Q-Plex™ mouse cytokine/chemokine array (Quansys Biosciences, Logan, Utah) as described previously (Morrey J D, Molter N E, Taro B, Lay M & Fairman J. Efficacy of cationic lipid-DNA complexes (CLDC) on hepatitis B virus in transgenic mice. Antiviral Res 2008; 79:71-79).

[2] = tested on: MDA-MB-231 human breast tumor xenographs; assay: Antitumor efficacy in nude mice with MDA-MB-231 xenographs, 1st experiment; type: in vivo, athymic nude (nu/nu) mice; conditions: for Day 60 Rel Tum Vol: mean ± SEM
Description: The aims of the 1st experiment were to determine a dose-response curve for the (1:4 mol:mol) calcium pterin suspension, to compare the antitumor activity of this suspension to pterin alone (pterin control), and to test the effect of CaPterin mega-dosing at 100 mg/kg/day. Antitumor efficacy was evaluated in nude mice with MDA-MB-231 human tumor xenographs by Perry Scientific (San Diego, Calif.). In the 1st experiment, twenty-three athymic nude (nu/nu) female mice, ages 3-4 weeks, were purchased from Harlan Sprague Dawley, Inc. (Indianapolis, Ind.). 5×10^6 MDA-MB-231 cancer cells were injected subcutaneously into the right flank of each mouse. When tumors reached 3-5 mm in size, twenty mice were divided into four treatment/control groups of five mice each. The four treatment groups were: (1:4 mol:mol) calcium pterin (7 mg/kg/day); pterin (21 mg/kg/day); (1:4 mol:mol) calcium pterin (21 mg/kg/day); and sterile water control. Two mice with outlying tumor sizes or non-tumor takes were excluded shortly after treatment began: one from the pterin group and one from the control group. […] Only one outlier persisted >4 days, for 14 days. Also excluded from the metabolic analysis in the 1st experiment was one mouse from each of the four experimental groups mega-dosed by oral gavage with 100 mg/kg/day CaPterin for tip to 31 days to test for toxicity. All the other mice in the 1st experiment persisted ≧60 days without complications.
The control mice in the 1st experiment were treated with sterile water while the control mice in the 2nd experiment were untreated to evaluate the effect of mouse handling and gavaging upon tumor growth. Daily dosing was for 7 days per week. Animals were restrained but not anesthetized for oral dosing. Tumors were measured twice weekly with calipers and body weights taken twice weekly on the day of tumor measurements. Blood was collected from all animals via cardiac puncture at termination (after 70 to 98 days of treatment) and processed to EDTA plasma for analysis. Tumor size measurements for the control group in the 2nd experiment on days 4 and 7 were missed due to a technical oversight.
The MDA-MB-231 human breast tumor cell lines were supplied by SRI International (Menlo Park, Calif.) and propagated using standard in vitro cell expansion methods. Briefly, cells were grown in L-15 media from Gibco (Cat. No. 11415-064) supplemented with 2 mM L-Glutamine and 10% Fetal Bovine Serum (FBS). The cells were cultured in an incubator with 5% CO2, 37.5° C., and 80% humidity. Cells were harvested with 0.25% (w/v) Trypsin-0.03% (w/v) EDTA solution. Cells were prepared for injection by standard methods to appropriate concentrations. Animals were temporarily restrained but not anesthetized for the inoculation of the tumor cells. Animals were subcutaneously injected with the tumor cells in a 100-200 μl volume.
Each animal was individually tracked for tumor growth by external caliper measurements of protruding tumor. Primary tumor sizes were measured using calipers and an approximate tumor volume calculated using the formula 1/2 (a×b^2), where b was the smaller of two perpendicular diameters.
For each group, the mean and standard error of the mean (SEM) of the ratio V/Vo, Relative Tumor Volume (RTV), were plotted as a function of treatment time after inoculation. V0 was the tumor volume at Day 0, when treatment began.

[3] = Toxicity by body weight changes in nude mice; type: in vivo, athymic nude mice
Description: The aims of the 1st experiment were to determine a dose-response curve for the (1:4 mol:mol) calcium pterin suspension, to compare the antitumor activity of this suspension to pterin alone (pterin control), and to test the effect of CaPterin mega-dosing at 100 mg/kg/day. Antitumor efficacy was evaluated in nude mice with MDA-MB-231 human tumor xenographs by Perry Scientific (San Diego, Calif.). In the 1st experiment, twenty-three athymic nude (nu/nu) female mice, ages 3-4 weeks, were purchased from Harlan Sprague Dawley, Inc. (Indianapolis, Ind.). 5×10^6 MDA-MB-231 cancer cells were injected subcutaneously into the right flank of each mouse. When tumors reached 3-5 mm in size, twenty mice were divided into four treatment/control groups of five mice each. The four treatment groups were: (1:4 mol:mol) calcium pterin (7 mg/kg/day); pterin (21 mg/kg/day); (1:4 mol:mol) calcium pterin (21 mg/kg/day); and sterile water control. […]
The control mice in the 1st experiment were treated with sterile water while the control mice in the 2nd experiment were untreated to evaluate the effect of mouse handling and gavaging upon tumor growth. […] Tumors were measured twice weekly with calipers and body weights taken twice weekly on the day of tumor measurements. […]

T1 sequence (P14902 whole entry): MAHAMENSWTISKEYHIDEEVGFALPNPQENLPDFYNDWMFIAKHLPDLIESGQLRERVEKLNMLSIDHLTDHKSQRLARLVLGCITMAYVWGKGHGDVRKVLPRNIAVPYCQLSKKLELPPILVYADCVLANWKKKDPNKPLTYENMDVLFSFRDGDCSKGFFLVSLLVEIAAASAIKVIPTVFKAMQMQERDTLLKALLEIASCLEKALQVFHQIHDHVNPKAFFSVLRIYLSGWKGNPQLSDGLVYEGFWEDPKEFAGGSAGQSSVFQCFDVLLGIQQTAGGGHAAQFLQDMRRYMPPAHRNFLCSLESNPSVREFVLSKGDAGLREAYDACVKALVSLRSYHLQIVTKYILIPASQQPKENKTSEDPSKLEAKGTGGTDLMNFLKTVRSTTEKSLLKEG

Nc1nc([O-])c2nccnc2n1.Nc1nc([O-])c2nccnc2n1.[Ca+2] [DCP, dipterinyl calcium pentahydrate]
pIC50 (IDO; PHA stimulated per Table 3): 3.49
pIC50 (IDO; unstimulated per Table 3): 3.33
HBe antigen (ELISA) versus controls (HBe antigen; 2.3 mg/(kg day)): significant treatment increases
HBe antigen (ELISA) versus controls (HBe antigen; 7.3 mg/(kg day)): significant treatment increases
serum chemokine RANTES versus controls ([1]; male HBV mice, 2.3 mg/(kg day)): significant decrease
IL-4, Female levels (mean ± SEM) ([1]; serum, female, 7.3 mg/(kg d)): 241 ± 53 rel. pg/ml
IL-9, Female levels (mean ± SEM) ([1]; serum, female, 7.3 mg/(kg d)): 185 ± 28 rel. pg/ml
IL-12, Female levels (mean ± SEM) ([1]; serum, female, 7.3 mg/(kg d)): 642 ± 11 rel. pg/ml
IL-4, Male levels (mean ± SEM) ([1]; serum, male, 7.3 mg/(kg d)): 87 ± 28 rel. pg/ml
IL-9, Male levels (mean ± SEM) ([1]; serum, male, 7.3 mg/(kg d)): 112 ± 13 rel. pg/ml
IL-12, Male levels (mean ± SEM) ([1]; serum, male, 7.3 mg/(kg d)): 575 ± 17 rel. pg/ml

(1:4 mol:mol) calcium pterin [CaPterin]
antitumor activity (tumor growth vs control) ([2]; 7 mg/kg/day): non-significant
Day 60 Rel Tum Vol ([2]; 7 mg/kg/day oral): 24.0 ± 9.0
antitumor activity (tumor growth vs control) ([2]; 21 mg/kg/day): significantly inhibits
Day 60 Rel Tum Vol ([2]; 21 mg/kg/day oral): 7.9 ± 1.3
T/C ratio (mean treatment tumor volume to mean control tumor volume) ([2]; 21 mg/kg/day, after 60 days): 41%
Spearman rank order correlation rs, Day 60 Relative Tumor Volume versus dose ([2]; n=14, p=0.005): 0.70
toxicity (appreciable weight loss) ([3]; mega-dosed 100 mg/kg/day oral gavage for up to 31 days): no observed toxicity
greatest weight loss (body weight) ([3]; mega-dosed group 100 mg/kg/day, one mouse, after 32 days): 8.1%
